Assay results: the supplement of paper PMC10307832

compound: CN1CCC(CC1)OC2=CC(=C(C=C2)NC3=NC=C4C(=N3)N(C(=O)N4C)C5CCCC5)OC [AZ3146] + N=C(N)NC(=N)NCCc1ccccc1 [Phenformin] (partner 250 µM); test: relative viability (nuclei count vs DMSO), 5 days (fraction); higher = more cells survive; details: first compound 0.08 µM
Summary of the method: (§1)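 Lung cancer cell lines, seeded in 1536-well plates, were treated the following day by pin tool with a single drug or with five library-drug doses (not always all listed) in √10 steps on top of a fixed anchor-drug dose. Cells were fixed and nuclei stained in one step after 5 days, and nuclei were counted. Relative viability is the nuclei count for treated wells divided by that for vehicle wells, reported as medians of duplicate plates.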

Cell Line | relative viability
SW 900 | 0.625
CAL-12T | 0.674
HCC-15 | 0.51
HOP-62 | 0.567
NCI-H460 | 0.49
LU99A | 0.687
NCI-H2085 | 0.659
A-427 | 0.375
NCI-H520 | 0.385
NCI-H838 | 0.581
NCI-H1792 | 0.191
NCI-H3122 | 0.367
NCI-H1395 | 0.394
201T | 0.448
NCI-H1993 | 0.513
NCI-H1355 | 0.446
NCI-H2405 | 0.4

Cell Line | relative viability
NCI-H1437 | 0.264
NCI-H661 | 0.285
COR-L 105 | 0.548
H3255 | 0.352
NCI-H2347 | 0.296
NCI-H1975 | 0.406
NCI-H441 | 0.762
NCI-H1650 | 0.415
NCI-H1915 | 0.285
NCI-H2087 | 0.382
HCC-366 | 0.58
NCI-H1793 | 0.473
RERF-LC-KJ | 0.395
EMC-BAC-2 | 0.413
LCLC-97TM1 | 0.386
NCI-H1651 | 0.31

same assay, conditions: first compound 0.253 µM

Cell Line | relative viability
SW 900 | 0.576
CAL-12T | 0.575
HCC-15 | 0.463
HOP-62 | 0.697
NCI-H460 | 0.493
LU99A | 0.841
NCI-H2085 | 0.67
A-427 | 0.332
NCI-H520 | 0.497
NCI-H838 | 0.554
NCI-H3122 | 0.391
BEN | 0.291
NCI-H1395 | 0.45
201T | 0.446
NCI-H1993 | 0.509
NCI-H1355 | 0.444
NCI-H2405 | 0.309

Cell Line | relative viability
NCI-H1437 | 0.34
NCI-H661 | 0.25
COR-L 105 | 0.451
H3255 | 0.419
NCI-H2347 | 0.357
NCI-H1975 | 0.387
NCI-H441 | 0.884
NCI-H1650 | 0.355
NCI-H1915 | 0.375
NCI-H2087 | 0.54
HCC-366 | 0.544
NCI-H1793 | 0.286
RERF-LC-KJ | 0.44
EMC-BAC-2 | 0.465
LCLC-97TM1 | 0.411
NCI-H1651 | 0.316

same assay, conditions: first compound 0.8 µM

Cell Line | relative viability
SW 900 | 0.439
CAL-12T | 0.568
HCC-15 | 0.429
HOP-62 | 0.604
NCI-H460 | 0.466
LU99A | 0.676
NCI-H2085 | 0.67
A-427 | 0.243
NCI-H520 | 0.323
NCI-H838 | 0.556
NCI-H1792 | 0.318
NCI-H3122 | 0.327
BEN | 0.248
NCI-H1395 | 0.379
201T | 0.438
NCI-H1993 | 0.499
NCI-H1355 | 0.437

Cell Line | relative viability
NCI-H2405 | 0.304
NCI-H1437 | 0.312
NCI-H661 | 0.265
COR-L 105 | 0.505
H3255 | 0.313
NCI-H2347 | 0.461
NCI-H1975 | 0.386
NCI-H441 | 0.812
NCI-H1650 | 0.449
NCI-H1915 | 0.381
NCI-H2087 | 0.406
HCC-366 | 0.607
NCI-H1793 | 0.339
RERF-LC-KJ | 0.433
EMC-BAC-2 | 0.53
LCLC-97TM1 | 0.326
NCI-H1651 | 0.345

same assay, conditions: first compound 2.53 µM

Cell Line | relative viability
SW 900 | 0.502
CAL-12T | 0.6
HCC-15 | 0.427
HOP-62 | 0.647
NCI-H460 | 0.515
LU99A | 0.8
NCI-H2085 | 0.757
A-427 | 0.282
NCI-H520 | 0.637
NCI-H838 | 0.517
NCI-H1792 | 0.267
NCI-H3122 | 0.339
BEN | 0.268
NCI-H1395 | 0.423
201T | 0.424
NCI-H1993 | 0.557
NCI-H1355 | 0.465

Cell Line | relative viability
NCI-H2405 | 0.373
NCI-H1437 | 0.295
NCI-H661 | 0.274
COR-L 105 | 0.388
H3255 | 0.377
NCI-H2347 | 0.598
NCI-H1975 | 0.401
NCI-H441 | 0.864
NCI-H1650 | 0.386
NCI-H1915 | 0.365
NCI-H2087 | 0.46
HCC-366 | 0.601
NCI-H1793 | 0.35
RERF-LC-KJ | 0.432
EMC-BAC-2 | 0.533
LCLC-97TM1 | 0.433
NCI-H1651 | 0.34

same assay, conditions: first compound 8 µM

Cell Line | relative viability
SW 900 | 0.383
CAL-12T | 0.405
HCC-15 | 0.391
HOP-62 | 0.523
NCI-H460 | 0.0767
LU99A | 0.842
NCI-H2085 | 0.477
A-427 | 0.227
NCI-H520 | 0.375
NCI-H838 | 0.229
NCI-H1792 | 0.121
NCI-H3122 | 0.305
BEN | 0.242
NCI-H1395 | 0.445
201T | 0.455
NCI-H1993 | 0.45
NCI-H1355 | 0.404

Cell Line | relative viability
NCI-H2405 | 0.366
NCI-H1437 | 0.313
NCI-H661 | 0.29
COR-L 105 | 0.294
H3255 | 0.338
NCI-H2347 | 0.42
NCI-H1975 | 0.301
NCI-H441 | 0.737
NCI-H1650 | 0.26
NCI-H1915 | 0.343
NCI-H2087 | 0.471
HCC-366 | 0.587
NCI-H1793 | 0.213
RERF-LC-KJ | 0.384
EMC-BAC-2 | 0.478
LCLC-97TM1 | 0.448
NCI-H1651 | 0.313

compound: CCOC(=O)CCNc1cc(N2CCc3ccccc3CC2)nc(-c2ccccn2)n1 [GSK-J4] + CC(=O)c1c(C)c2cnc(Nc3ccc(N4CCNCC4)cn3)nc2n(C2CCCC2)c1=O [Palbociclib] (partner 0.5 µM); test: as above; details: first compound 0.5 µM
Summary of the method: as §1

Cell Line | relative viability
SW 900 | 0.575
CAL-12T | 0.46
HCC-15 | 0.712
HOP-62 | 0.469
NCI-H460 | 0.175
LU99A | 0.403
NCI-H2085 | 0.451
A-427 | 0.507
NCI-H520 | 0.231
NCI-H838 | 0.222
NCI-H1792 | 0.622
NCI-H3122 | 0.18
BEN | 0.476
NCI-H1395 | 0.546
201T | 0.359
NCI-H1993 | 0.588
NCI-H1355 | 0.372

Cell Line | relative viability
NCI-H2405 | 0.525
NCI-H1437 | 0.293
NCI-H661 | 0.41
COR-L 105 | 0.428
H3255 | 0.325
NCI-H2347 | 0.448
NCI-H1975 | 0.543
NCI-H441 | 0.235
NCI-H1650 | 0.34
NCI-H1915 | 0.533
NCI-H2087 | 0.256
HCC-366 | 0.357
NCI-H1793 | 0.298
RERF-LC-KJ | 1.07
EMC-BAC-2 | 0.505
LCLC-97TM1 | 0.211
NCI-H1651 | 0.502

same assay, conditions: first compound 1.581 µM

Cell Line | relative viability
SW 900 | 0.496
CAL-12T | 0.342
HCC-15 | 0.528
HOP-62 | 0.455
LU99A | 0.375
NCI-H2085 | 0.434
A-427 | 0.439
NCI-H520 | 0.113
NCI-H838 | 0.204
NCI-H3122 | 0.2
BEN | 0.314
NCI-H1395 | 0.518
201T | 0.358
NCI-H1993 | 0.623
NCI-H1355 | 0.375
NCI-H2405 | 0.458

Cell Line | relative viability
NCI-H1437 | 0.278
NCI-H661 | 0.38
H3255 | 0.299
NCI-H2347 | 0.374
NCI-H1975 | 0.498
NCI-H441 | 0.202
NCI-H1650 | 0.287
NCI-H1915 | 0.514
NCI-H2087 | 0.243
HCC-366 | 0.322
NCI-H1793 | 0.264
RERF-LC-KJ | 0.954
EMC-BAC-2 | 0.474
LCLC-97TM1 | 0.216
NCI-H1651 | 0.47

same assay, conditions: first compound 5 µM

Cell Line | relative viability
SW 900 | 0.546
CAL-12T | 0.442
HCC-15 | 0.701
HOP-62 | 0.44
NCI-H460 | 0.167
NCI-H2085 | 0.386
NCI-H520 | 0.223
NCI-H838 | 0.158
NCI-H1792 | 0.773
NCI-H3122 | 0.181
BEN | 0.465
NCI-H1395 | 0.576
201T | 0.361
NCI-H1993 | 0.606
NCI-H1355 | 0.415
NCI-H1437 | 0.332
NCI-H661 | 0.388
COR-L 105 | 0.342
H3255 | 0.257
NCI-H2347 | 0.411
NCI-H1975 | 0.613
NCI-H441 | 0.241
NCI-H1650 | 0.353
NCI-H2087 | 0.282
NCI-H1793 | 0.28
RERF-LC-KJ | 1.13
LCLC-97TM1 | 0.225
NCI-H1651 | 0.504

same assay, conditions: first compound 15.81 µM

Cell Line | relative viability
SW 900 | 0.517
CAL-12T | 0.482
HCC-15 | 0.694
HOP-62 | 0.465
NCI-H460 | 0.137
LU99A | 0.383
NCI-H2085 | 0.495
A-427 | 0.511
NCI-H520 | 0.167
NCI-H838 | 0.194
NCI-H1792 | 0.569
NCI-H3122 | 0.177
BEN | 0.419
NCI-H1395 | 0.556
201T | 0.326
NCI-H1993 | 0.542
NCI-H1355 | 0.35

Cell Line | relative viability
NCI-H2405 | 0.522
NCI-H1437 | 0.38
NCI-H661 | 0.409
COR-L 105 | 0.415
H3255 | 0.279
NCI-H2347 | 0.436
NCI-H1975 | 0.524
NCI-H441 | 0.221
NCI-H1650 | 0.371
NCI-H1915 | 0.481
NCI-H2087 | 0.24
HCC-366 | 0.357
NCI-H1793 | 0.204
RERF-LC-KJ | 1.04
EMC-BAC-2 | 0.465
LCLC-97TM1 | 0.211
NCI-H1651 | 0.504

same assay, conditions: first compound 50 µM

Cell Line | relative viability
SW 900 | 0.436
CAL-12T | 0.493
HCC-15 | 0.488
HOP-62 | 0.473
NCI-H460 | 0.149
LU99A | 0.344
NCI-H2085 | 0.494
A-427 | 0.443
NCI-H520 | 0.163
NCI-H838 | 0.226
NCI-H1792 | 0.668
NCI-H3122 | 0.191
BEN | 0.457
NCI-H1395 | 0.61
201T | 0.352
NCI-H1993 | 0.481
NCI-H1355 | 0.356
NCI-H2405 | 0.508
NCI-H1437 | 0.205
NCI-H661 | 0.361
COR-L 105 | 0.396
H3255 | 0.284
NCI-H2347 | 0.419
NCI-H1975 | 0.634
NCI-H441 | 0.161
NCI-H1650 | 0.283
NCI-H1915 | 0.514
NCI-H2087 | 0.227
